Data as given in patent US20020015941A1, “Method for treatment of neurodegenerative diseases” (The General Hospital Corporation, priority 2000, published 2002).
Like-named read-outs stand apart in the source and are kept apart here.

Experiments:
[1] = test system: capacitative Ca2+ entry (CCE) in SY5Y cells; type: cell-based, human
[2] = test system: capacitative calcium entry (CCE) in CHO cells; assay: CCE by ratiometric Ca2+ imaging in CHO cells; type: cell-based, Chinese hamster
[3] = test system: CHO and CHO-APP cells; conditions: Aβ42 pre-treatment
Procedure: The Aβ42 peptides were obtained from Bachem and dissolved in PBS at 1 mg/ml directly before use.

[4] = test system: voltage-operated Ca2+ channels; conditions: literature; cited from earlier work
[5] = test system: CHO or 293 cells stably expressing human APP
[6] = test system: Aβ42/Aβtotal in CHO cells stably overexpressing human APP; assay: Aβ sandwich ELISA, CHO cells stably overexpressing human APP; type: cell-based, Chinese hamster; conditions: CHO-APP, indicated concentrations for 12 hours (FIG. 5C)
[7] = test system: ICRAC channels in wild-type PS1 CHO cells; assay: ICRAC by whole-cell patch clamp in stable CHO cells; type: cell-based, Chinese hamster; conditions: wild-type PS1 CHO cells pretreated with 10 μM SKF96365 for 30 min
[8] = test system: total Aβ and Aβ42 in D257A-PS1 CHO cells; assay: Aβ generation in CHO cells stably expressing APP and D257A-PS1; type: cell-based, Chinese hamster
[9] = test system: secreted APP-α in 293 cells stably expressing human APP; assay: Secreted APPs-α by immunoprecipitation (22C11) and blot (6E10); type: cell-based; conditions: SKF96365 treatment, 12 hour
[10] = test system: IP3-elicited release of Ca2+ from internal stores; conditions: literature; cited from earlier work
[11] = test system: capacitative calcium entry (CCE); conditions: literature; cited from earlier work

Question: For Calyculin A, which “Ca2+ influx (CCE) after pretreatment” value [1] is on record?
Answer: blocked

Question: For ω-conotoxin GVIA, which “Ca2+ influx (CCE) after pretreatment” value [1] is on record?
Answer: virtually no effect

Question: Which results are given for “Aβ42: 42-amino acid version of amyloid β-peptide, obtained from Bachem”?
Answer: CCE response after Aβ42 pre-treatment ([2]; CHO and CHO-APP cells pre-incubated with 20 PM Aβ42 for 3 hours): no detectable effect; cell viability [3]: not affected

Question: Which results are given for `COc1ccc(CCCOC(Cn2ccnc2)c2ccc(OC)cc2)cc1` (centres unmarked) [SKF96365]?
Answer: degree of CCE reduction in D257A-PS1 cells compared to wild-type PS1 cells ([2]; 50 μM SKF96365, 12 hrs): much less; effect on voltage-operated Ca2+ channels [4]: minor inhibitory effect; Ca2+ influx (CCE) after pretreatment ([1]; 100 μM SKF96365 1 hr, 100 nM CalyA 20 min, nifedipine 1 μM, ω-conotoxin GVIA 2 μM, prior to induction of CCE): blocked; cell viability [5]: did not alter; Aβ42-promoting effect versus concentration [6]: dose-dependent; ICRAC (peak current density) [7]: virtually eliminated; generation of Aβ42 in D257A-PS1 cells ([8]; 50 μM SKF96365): did not restore; generation of total Aβ in D257A-PS1 cells ([8]; 50 μM SKF96365): did not restore; relative Aβ42 levels as share of total Aβ levels in D257A cells ([8]; following treatment with SKF96365 (50 μM)): greater than 90%; secreted APP-α levels [9]: did not alter

Question: Which “IP3-elicited release of Ca2+ from internal stores” value [10] does the source give for `C=C1[C@@H](C)[C@H]2[C@H](Cc3ccccc3)NC(=O)[C@]23[C@H](OC(C)=O)/C=C/[C@@](C)(O)C(=O)[C@@H](C)C/C=C/[C@H]3[C@@H]1O` [CytoD, Cytochalasin D] here?
Answer: impairs

Question: And the “Ca2+ influx in wild-type PS1 or M146L-PS1 cells” value [1]?
Answer: essentially no effect

Question: And the “effect on CCE” value [11]?
Answer: no effect
